Data reported in ChEMBL document CHEMBL5715952 (Oncotarget, 2015).

How the values were obtained:
[1] = Ratio of IC50 for inhibition of CAMKK in human RPMI-8226 cells assessed as reduction of cell viability to IC50 for inhibition of CAMKK in human melphalan-resistant RPMI-8226 cells assessed as reduction of cell viability; conditions: time 72 hrs; condition multiple myeloma
[2] = Inhibition of CAMKK in human bortezomib-resistant ANBL6 cells assessed as reduction of cell growth incubated for 72 hrs by CellTiter 96 aqueous one solution cell proliferation assay; format: cell-based
[3] = Inhibition of CAMKK in human RPMI-8226 cells assessed as reduction of cell growth incubated for 72 hrs by CellTiter 96 aqueous one solution cell proliferation assay; format: cell-based; conditions: RPMI-8226, 72 h
[4] = Inhibition of CAMKK in human ANBL-6 cells assessed as reduction of cell growth incubated for 72 hrs by CellTiter 96 aqueous one solution cell proliferation assay; format: cell-based; conditions: ANBL-6, 72 h
[5] = Ratio of IC50 for inhibition of CAMKK in human RPMI-8226 cells assessed as reduction of cell viability to IC50 for inhibition of CAMKK in human RPMI-8226/BR resistant cells assessed as reduction of cell viability; conditions: condition multiple myeloma
[6] = Inhibition of CAMKK in bortezomib Resistant human RPMI-8226 cells assessed as reduction of cell growth incubated for 72 hrs by CellTiter 96 aqueous one solution cell proliferation assay; format: cell-based; conditions: Bortezomib-resistant RPMI-8226, 72 h
[7] = Inhibition of CAMKK in Melphalan Resistant human RPMI-8226 cells assessed as reduction of cell growth incubated for 72 hrs by CellTiter 96 aqueous one solution cell proliferation assay; format: cell-based; conditions: Melphalan-resistant RPMI-8226 cell
[8] = Ratio of IC50 for inhibition of CAMKK in human ANBL6 cells assessed as reduction of cell viability to IC50 for inhibition of CAMKK in human ANBL6/BR resistant cells assessed as reduction of cell viability; conditions: condition multiple myeloma
[9] = Inhibition of CAMKK in human U-266 cells assessed as reduction of cell growth incubated for 72 hrs by CellTiter 96 aqueous one solution cell proliferation assay; format: cell-based; conditions: U-266, 72 h
[10] = Ratio of IC50 for inhibition of B-RAFV600E/pERK in human ANBL6 cells assessed as reduction of cell viability to IC50 for inhibition of B-RAFV600E/pERK in human ANBL6/BR resistant cells assessed as reduction of cell viability; conditions: condition multiple myeloma
[11] = Ratio of IC50 for inhibition of B-RAFV600E/pERK in human RPMI-8226 cells assessed as reduction of cell viability to IC50 for inhibition of B-RAFV600E/pERK in human RPMI-8226/BR resistant cells assessed as reduction of cell viability; conditions: condition multiple myeloma
[12] = Inhibition of B-RAFV600E/pERK in human U-266 cells assessed as reduction of cell growth incubated for 72 hrs by CellTiter 96 aqueous one solution cell proliferation assay; format: cell-based; conditions: U-266, 72 h
[13] = Ratio of IC50 for inhibition of B-RAFV600E/pERK in human RPMI-8226 cells assessed as reduction of cell viability to IC50 for inhibition of B-RAFV600E/pERK in human melphalan-resistant RPMI-8226 cells assessed as reduction of cell viability; conditions: time 72 hrs; condition multiple myeloma
[14] = Inhibition of B-RAF-V600E/pERK in human RPMI-8226 cells assessed as reduction of cell growth incubated for 72 hrs by CellTiter 96 aqueous one solution cell proliferation assay; format: cell-based; conditions: RPMI-8226, 72 h
[15] = Inhibition of B-RAFV600E/pERK in human ANBL-6 cells assessed as reduction of cell growth incubated for 72 hrs by CellTiter 96 aqueous one solution cell proliferation assay; format: cell-based; conditions: ANBL-6, 72 h
[16] = Inhibition of B-RAFV600E/pERK in human bortezomib-resistant ANBL6 cells assessed as reduction of cell growth incubated for 72 hrs by CellTiter 96 aqueous one solution cell proliferation assay; format: cell-based
[17] = Inhibition of B-RAFV600E/pERK in Melphalan Resistant human RPMI-8226 cells assessed as reduction of cell growth incubated for 72 hrs by CellTiter 96 aqueous one solution cell proliferation assay; format: cell-based; conditions: Melphalan-resistant RPMI-8226 cell
[18] = Inhibition of B-RAFV600E/pERK in bortezomib Resistant human RPMI-8226 cells assessed as reduction of cell growth incubated for 72 hrs by CellTiter 96 aqueous one solution cell proliferation assay; format: cell-based; conditions: Bortezomib-resistant RPMI-8226, 72 h
[19] = Inhibition of c-KIT/VEGFR1/B-Raf/RET/PDGFR in human RPMI-8226 cells assessed as reduction of cell growth incubated for 72 hrs by CellTiter 96 aqueous one solution cell proliferation assay; format: cell-based; conditions: RPMI-8226, 72 h
[20] = Inhibition of c-KIT/VEGFR2/B-Raf/RET/PDGFR in human ANBL-6 cells assessed as reduction of cell growth incubated for 72 hrs by CellTiter 96 aqueous one solution cell proliferation assay; format: cell-based; conditions: ANBL-6, 72 h
[21] = Ratio of IC50 for inhibition of c-KIT/VEGFR2/B-Raf/RET/PDGFR in human RPMI-8226 cells assessed as reduction of cell viability to IC50 for inhibition of c-KIT/VEGFR2/B-Raf/RET/PDGFR in human melphalan-resistant RPMI-8226 cells assessed as reduction of cell viability; conditions: time 72 hrs; condition multiple myeloma
[22] = Inhibition of c-KIT/VEGFR1/B-Raf/RET/PDGFR in human ANBL-6 cells assessed as reduction of cell growth incubated for 72 hrs by CellTiter 96 aqueous one solution cell proliferation assay; format: cell-based; conditions: ANBL-6, 72 h
[23] = Inhibition of c-KIT/VEGFR1/B-Raf/RET/PDGFR in bortezomib Resistant human RPMI-8226 cells assessed as reduction of cell growth incubated for 72 hrs by CellTiter 96 aqueous one solution cell proliferation assay; format: cell-based; conditions: Bortezomib-resistant RPMI-8226, 72 h
[24] = Ratio of IC50 for inhibition of c-KIT/VEGFR1/B-Raf/RET/PDGFR in human ANBL6 cells assessed as reduction of cell viability to IC50 for inhibition of c-KIT/VEGFR1/B-Raf/RET/PDGFR in human ANBL6/BR resistant cells assessed as reduction of cell viability; conditions: condition multiple myeloma
[25] = Ratio of IC50 for inhibition of c-KIT/VEGFR2/B-Raf/RET/PDGFR in human RPMI-8226 cells assessed as reduction of cell viability to IC50 for inhibition of c-KIT/VEGFR2/B-Raf/RET/PDGFR in human RPMI-8226/BR resistant cells assessed as reduction of cell viability; conditions: condition multiple myeloma
[26] = Ratio of IC50 for inhibition of c-KIT/VEGFR1/B-Raf/RET/PDGFR in human RPMI-8226 cells assessed as reduction of cell viability to IC50 for inhibition of c-KIT/VEGFR1/B-Raf/RET/PDGFR in human RPMI-8226/BR resistant cells assessed as reduction of cell viability; conditions: condition multiple myeloma
[27] = Ratio of IC50 for inhibition of c-KIT/VEGFR1/B-Raf/RET/PDGFR in human RPMI-8226 cells assessed as reduction of cell viability to IC50 for inhibition of c-KIT/VEGFR1/B-Raf/RET/PDGFR in human melphalan-resistant RPMI-8226 cells assessed as reduction of cell viability; conditions: time 72 hrs; condition multiple myeloma
[28] = Inhibition of c-KIT/VEGFR2/B-Raf/RET/PDGFR in Melphalan Resistant human RPMI-8226 cells assessed as reduction of cell growth incubated for 72 hrs by CellTiter 96 aqueous one solution cell proliferation assay; format: cell-based; conditions: Melphalan-resistant RPMI-8226 cell
[29] = Ratio of IC50 for inhibition of c-KIT/VEGFR2/B-Raf/RET/PDGFR in human ANBL6 cells assessed as reduction of cell viability to IC50 for inhibition of c-KIT/VEGFR2/B-Raf/RET/PDGFR in human ANBL6/BR resistant cells assessed as reduction of cell viability; conditions: condition multiple myeloma
[30] = Inhibition of c-KIT/VEGFR1/B-Raf/RET/PDGFR in Melphalan Resistant human RPMI-8226 cells assessed as reduction of cell growth incubated for 72 hrs by CellTiter 96 aqueous one solution cell proliferation assay; format: cell-based; conditions: Melphalan-resistant RPMI-8226 cell
[31] = Inhibition of c-KIT/VEGFR2/B-Raf/RET/PDGFR in human RPMI-8226 cells assessed as reduction of cell growth incubated for 72 hrs by CellTiter 96 aqueous one solution cell proliferation assay; format: cell-based; conditions: RPMI-8226, 72 h
[32] = Inhibition of c-KIT/VEGFR2/B-Raf/RET/PDGFR in human U-266 cells assessed as reduction of cell growth incubated for 72 hrs by CellTiter 96 aqueous one solution cell proliferation assay; format: cell-based; conditions: U-266, 72 h
[33] = Inhibition of c-KIT/VEGFR2/B-Raf/RET/PDGFR in bortezomib Resistant human RPMI-8226 cells assessed as reduction of cell growth incubated for 72 hrs by CellTiter 96 aqueous one solution cell proliferation assay; format: cell-based; conditions: Bortezomib-resistant RPMI-8226, 72 h
[34] = Inhibition of c-KIT/VEGFR1/B-Raf/RET/PDGFR in human bortezomib-resistant ANBL6 cells assessed as reduction of cell growth incubated for 72 hrs by CellTiter 96 aqueous one solution cell proliferation assay; format: cell-based
[35] = Inhibition of c-KIT/VEGFR2/B-Raf/RET/PDGFR in human bortezomib-resistant ANBL6 cells assessed as reduction of cell growth incubated for 72 hrs by CellTiter 96 aqueous one solution cell proliferation assay; format: cell-based
[36] = Inhibition of c-KIT/VEGFR1/B-Raf/RET/PDGFR in human U-266 cells assessed as reduction of cell growth incubated for 72 hrs by CellTiter 96 aqueous one solution cell proliferation assay; format: cell-based; conditions: U-266, 72 h

Compound: O=C(O)c1ccc2c3c1cccc3c(=O)n1c3ccccc3nc21
- Ratio IC50 [1]: 1
- IC50 [2]: 10 µM
- IC50 [3]: 10 µM
- IC50 [4]: 10 µM
- Ratio IC50 [5]: 1
- IC50 [6]: 10 µM
- IC50 [7]: 10 µM
- Ratio IC50 [8]: 1
- IC50 [9]: 10 µM

Compound: OCCn1cc(-c2ccc3c(c2)CC/C3=N\O)c(-c2ccncc2)n1
- Ratio IC50 [10]: 1
- Ratio IC50 [11]: 1
- IC50 [12]: 10 µM
- Ratio IC50 [13]: 1
- IC50 [14]: 10 µM
- IC50 [15]: 10 µM
- IC50 [16]: 10 µM
- IC50 [17]: 10 µM
- IC50 [18]: 10 µM

Compound: CNC(=O)c1cc(Oc2ccc(NC(=O)Nc3ccc(Cl)c(C(F)(F)F)c3)c(F)c2)ccn1 [REGORAFENIB]
- IC50 [19]: 4.07 µM
- IC50 [20]: 9.12 µM
- Ratio IC50 [21]: 1.1
- IC50 [22]: 9.12 µM
- IC50 [23]: 2.76 µM
- Ratio IC50 [24]: 1.48
- Ratio IC50 [25]: 2.45
- Ratio IC50 [26]: 2.45
- Ratio IC50 [27]: 1.1
- IC50 [28]: 3.55 µM
- Ratio IC50 [29]: 1.48
- IC50 [30]: 3.55 µM
- IC50 [31]: 4.07 µM
- IC50 [32]: 10 µM
- IC50 [33]: 2.76 µM
- IC50 [34]: 6.17 µM
- IC50 [35]: 6.17 µM
- IC50 [36]: 10 µM
